From US20260021131A1, “USE OF MI[…] IN COMBINATION WITH CA[…] TREATING NASOPHARYNGEAL CARCINOMA” (CSPC ZHONGQI PHARMACEUTICAL TECHNOLOGY (SHIJIAZHUANG) CO., …, priority 2022, published 2026)

Assays:
[1] = test system: subjects with recurrent and/or metastatic nasopharyngeal carcinoma who have failed platinum-based therapy; assay: Phase III clinical study of mitoxantrone hydrochloride liposome injection combined with capecitabine versus capecitabine monotherapy: efficacy evaluation (best overall response, RECIST 1.1); assay type: in vivo, human; design: key to Best overall response: complete response (CR); partial response (PR); stable disease (SD); disease progression (PD)
Excerpt: (§1) Example 1. A Randomized, Open-Label, Positive-Controlled, Multi-center Phase III Clinical Study of Mitoxantrone Hydrochloride Liposome Injection Combined with Capecitabine Versus Capecitabine Monotherapy in Subjects with Recurrent and/or Metastatic Nasopharyngeal Carcinoma Who Have Failed Platinum-Based Therapy.
This study is a randomized, open-label, positive-controlled, multicenter phase III clinical study whose objective is to evaluate the efficacy and safety of mitoxantrone hydrochloride liposome injection combined with capecitabine versus capecitabine monotherapy in subjects with recurrent and/or metastatic nasopharyngeal carcinoma.
(§2) Subjects with recurrent and/or metastatic nasopharyngeal carcinoma who have failed first-line or second-line platinum-based therapy will be enrolled. After screening, eligible subjects are stratified-randomized (stratification factors: (1) ECOG score: 0 vs. 1; (2) whether a liver metastasis is present: any metastasis is present vs. all metastases are not present; (3) gender: male vs. female) in a 1:1 ratio into an experimental group and a control group.
(§3) The experimental group receives treatment with mitoxantrone hydrochloride liposome injection (20 mg/m^2) combined with capecitabine (1000 mg/m^2, twice daily), with every 3 weeks as a treatment cycle. The mitoxantrone hydrochloride liposome is administered on day 1 of each cycle, and capecitabine is administered on days 1 to 14. After 8 cycles of treatment with the mitoxantrone hydrochloride liposome, the investigator will assess the patient's risk-benefit ratio to determine whether to continue treatment until disease progression or intolerance, and capecitabine monotherapy as maintenance treatment. The control group receives capecitabine monotherapy, with every 3 weeks as a treatment cycle. Capecitabine monotherapy is administered on days 1 to 14 of each cycle. Sparse blood collection is conducted for all subjects in the experimental group.
During the study, the Independent Data Monitoring Committee (IDMC) will conduct safety assessments after two cycles of treatment for the first 40 subjects enrolled (about 20 per group) and throughout the study. Enrollment will continue during the safety assessment period. All subjects will be treated until disease progression according to the RECIST1.1 criteria, intolerable toxicity, withdrawal of informed consent, initiation of new anti-tumor therapy, loss to follow-up, death, or end of study, whichever occurs first. If the subject has no more treatment options after the investigator first determines that the subject has experienced disease progression, and the investigator determines that the subject can continue to benefit from the trial treatment, the subject may continue to receive the trial treatment in this trial until disease progression as assessed by the IRC or the investigator determines that the subject no longer benefits. […]

[2] = test system: subjects with recurrent and/or metastatic nasopharyngeal carcinoma who have failed platinum-based therapy; assay type: in vivo, human
Excerpt: as §1, §2, §3
During the study, the Independent Data Monitoring Committee (IDMC) will conduct safety assessments after two cycles of treatment for the first 40 subjects enrolled (about 20 per group) and throughout the study. Enrollment will continue during the safety assessment period. All subjects will be treated until disease progression according to the RECIST1.1 criteria, intolerable toxicity, withdrawal of informed consent, initiation of new anti-tumor therapy, loss to follow-up, death, or end of study, whichever occurs first. If the subject has no more treatment options after the investigator first determines that the subject has experienced disease progression, and the investigator determines that the subject can continue to benefit from the trial treatment, the subject may continue to receive the trial treatment in this trial until disease progression as assessed by the IRC or the investigator determines that the subject no longer benefits.
• Objective response rate (ORR), disease control rate (DCR), and duration of response (DOR) as assessed by the investigator and the IRC • Progression-free survival (PFS) as assessed by the investigator • Frequency and severity of AEs (NCI CTCAE 5.0); changes in vital signs, physical examinations, electrocardiograms, and laboratory findings • Total mitoxantrone and free mitoxantrone plasma concentrations. • Note: The abbreviations described above have the following meanings: • PFS: progression-free survival, defined as the time between the initial treatment of study drug and the date of disease progression (PD) or death, whichever occurs first. • OS: overall survival, defined as the time from the initial treatment of the study drug to death from any cause. • ORR: objective response rate, defined as the proportion of subjects achieving complete response (CR) and partial response (PR). • DCR: disease control rate, defined as the proportion of subjects achieving complete response (CR), partial response (PR), and stable disease (SD). • DOR: duration of response, defined as the time from the first assessment of CR or PR to the first assessment of PD or death from any cause.

[3] = subjects evaluated for BOR (9 experimental group, 5 control group), by Jul. 31, 2023

Compound: CCCCCOC(=O)Nc1nc(=O)n([C@@H]2O[C@H](C)[C@@H](O)[C@H]2O)cc1F [control group, capecitabine]
- Best overall response ([1]; subject S01005, ECOG 0, 1 line received, metastasis liver and lung): SD
- Best overall response ([1]; subject S13001, ECOG 1, 1 line received, metastasis liver, spleen, and bone): PD
- Best overall response ([1]; subject S14001, ECOG 1, 2 lines received, metastasis liver and bone): PD
- Best overall response ([1]; subject S24001, ECOG 1, 2 lines received, metastasis bone): PR
- Best overall response ([1]; subject S32001, ECOG 1, 1 line received, metastasis liver): PD
- Best overall response (BOR): number of evaluated subjects with PD [1, 3]: three
- Best overall response (BOR): number of evaluated subjects with PR [1, 3]: one
- Best overall response (BOR): number of evaluated subjects with SD [1, 3]: one
- Best overall response (BOR): percentage of evaluated subjects with PD [1, 3]: 60%
- Best overall response (BOR): percentage of evaluated subjects with PR [1, 3]: 20%
- Best overall response (BOR): percentage of evaluated subjects with SD [1, 3]: 20%
- SAE: Acute epiglottitis ([2]; both, human, in vivo): 0 n (%)
- SAE: Anemia ([2]; both, human, in vivo): 0 n (%)
- SAE: Bacterial pneumonia ([2]; both, human, in vivo): 1 (3.3%) n (%)
- SAE: Cancer pain ([2]; both, human, in vivo): 0 n (%)
- SAE: Dysphagia ([2]; both, human, in vivo): 1 (3.3%) n (%)
- SAE: General fatigue ([2]; both, human, in vivo): 0 n (%)
- SAE: Hypokalemia ([2]; both, human, in vivo): 0 n (%)
- SAE: Hyponatremia ([2]; both, human, in vivo): 0 n (%)
- SAE: Neutrophil count decreased ([2]; both, human, in vivo): 0 n (%)
- SAE: Oralmucositis ([2]; both, human, in vivo): 1 (3.3%) n (%)
- SAE: Platelet count decreased ([2]; both, human, in vivo): 0 n (%)
- SAE: Post-cardiac arrest resuscitation syndrome ([2]; both, human, in vivo): 1 (3.3%) n (%)
- SAE: Posterior-circulation ischemia ([2]; both, human, in vivo): 1 (3.3%) n (%)
- SAE: Pulmonary infection ([2]; both, human, in vivo): 0 n (%)
- SAE: Severe pneumonia ([2]; both, human, in vivo): 1 (3.3%) n (%)
- SAE: Sinusitis ([2]; both, human, in vivo): 0 n (%)
- SAE: Upper airway obstruction ([2]; both, human, in vivo): 0 n (%)
- SAE: White blood cell count decreased ([2]; both, human, in vivo): 0 n (%)
- Subjects who experienced serious adverse events (SAEs), total ([2]; both, human, in vivo): 3 subjects
- SAE: Death from unknown cause ([2]; experimental group N = 32, control group N = 30): 1 (3.3%) n (%)
- Subjects who died (end of the study) ([2]; up to Jul. 31, 2023, 32 subjects experimental group, 30 subjects control group): two
